{"source": "patent US20240376055A1", "about": "“INHIBITORS OF TRANSGLUTAMINASES” (Zedira GmbH, priority 2021, published 2024)", "key": {"[1]": {"target": "T1, recombinant human transglutaminase 2 (Homo sapiens, UniProt P21980)", "T1 construct": "purchased Zedira T022", "T1 sequence (P21980 1-687)": "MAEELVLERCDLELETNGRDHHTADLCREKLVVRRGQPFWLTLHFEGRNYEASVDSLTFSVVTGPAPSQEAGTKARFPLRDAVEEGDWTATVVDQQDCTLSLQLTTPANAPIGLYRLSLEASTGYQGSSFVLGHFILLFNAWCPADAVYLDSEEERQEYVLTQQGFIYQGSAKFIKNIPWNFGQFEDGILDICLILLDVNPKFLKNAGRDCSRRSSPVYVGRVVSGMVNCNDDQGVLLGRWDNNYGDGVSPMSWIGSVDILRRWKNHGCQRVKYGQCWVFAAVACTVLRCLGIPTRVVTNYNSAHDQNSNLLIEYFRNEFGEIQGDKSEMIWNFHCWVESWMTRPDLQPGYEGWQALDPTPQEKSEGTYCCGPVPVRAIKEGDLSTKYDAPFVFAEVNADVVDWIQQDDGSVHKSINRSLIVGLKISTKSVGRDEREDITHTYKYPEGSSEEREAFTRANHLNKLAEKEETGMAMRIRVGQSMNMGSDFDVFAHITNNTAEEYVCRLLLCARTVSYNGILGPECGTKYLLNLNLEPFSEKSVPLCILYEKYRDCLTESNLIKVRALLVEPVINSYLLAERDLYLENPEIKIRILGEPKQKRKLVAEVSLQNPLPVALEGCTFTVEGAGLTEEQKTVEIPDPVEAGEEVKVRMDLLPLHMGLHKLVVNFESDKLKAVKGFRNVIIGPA", "test": "Transglutaminase assay (DCC-assay: dansylcadaverine incorporation into dimethylcasein)", "type": "biochemical", "conditions": "for IC50: 10 nM TG2, 37° C., slope 20-30 min", "method": "To illustrate the advantage of branched alkyl moieties over aromatic moieties, we refer to reference compounds Ref. 2 (ZED1227, U.S. Pat. No. 9,434,763 B2) and Ref. 3 (A8, ZED1047). Inhibition data were determined using the classical fluorescent transamidation assay (dansylcadaverine incorporation into methylated casein, DCC-assay) as described [Büchold, C.; Hils, M.; Gerlach, U.; Weber, J.; Pelzer, C.; Heil, A.; Aeschlimann, D.; Pasternack, R. Features of ZED1227: The First-In-Class Tissue Transglutaminase Inhibitor Undergoing Clinical Evaluation for the Treatment of Celiac Disease. Cells 2022, 11, 1667. https://doi.org/10.3390/cells11101667]. Casein is one of the best known high molecular weight (24 kDa) protein substrates for transglutaminases. Please note, the IC50 value of Ref. 3 (A8) published in U.S. Pat. No. 9,434,763 B2 cannot be compared to the present data, relying on a fluorogenic isopeptidase assay.\nTo this extent, inhibition data were determined using the classical fluorescent transamidation assay (dansylcadaverine incorporation into methylated casein, DCC-assay) as described in Büchold et al. [Buchold, C.; Hils, M.; Gerlach, U.; Weber, J.; Pelzer, C.; Heil, A.; Aeschlimann, D.; Pasternack, R. Features of ZED1227: The First-In-Class Tissue Transglutaminase Inhibitor Undergoing Clinical Evaluation for the Treatment of Celiac Disease. Cells 2022, 11, 1667. https://doi.org/10.3390/cells11101667]. Casein is one of the best known high molecular weight (24 kDa) protein substrates for transglutaminases. Inhibition data of the inventive compounds was compared with inhibition of compounds disclosed in U.S. Pat. No. 9,434,763 B2, particularly, compound A8, which is denoted herein as Reference 3. It is noteworthy that the IC50 values of compounds A8 published in U.S. Pat. No. 9,434,763 B2 and E16 from U.S. Pat. No. 11,072,634 B2 cannot be compared to the present data, relying on a fluorogenic isopeptidase assay.\nFor the determination of potency of inhibitors against tissue transglutaminase, the incorporation of dansylcadaverine into dimethylcasein (Zedira product T036, Lorand et al., Anal Biochem, 1971, 44:221-31) was measured using recombinant human transglutaminase 2 (Zedira Product T022).\nThe tissue transglutaminase is diluted in buffer (50 mM Tris-HCl, 7.5 mM CaCl2), 150 mM NaCl, pH=7.4). The final concentration of TG2 in the assay is 10 nM. A 10 mM inhibitor stock solution is prepared in DMSO, and from this a serial 1:2-fold dilution series is prepared also in DMSO. […]\nIncrease in fluorescence is measured using λex=330 nm and λem=500 nm at 37° C. for 30 min. […]\nAnalysis of enzymatic activity is performed by calculation of the slope of an increase in fluorescence intensity. […]"}, "[2]": {"test": "Caco-2 permeability assay (CacoReady kit)", "type": "in vitro ADME", "conditions": "human; Caco-2 barrier", "method": "Permeability coefficients (Papp values) were obtained from Caco-2 barrier studies predicting oral/intestinal bioavailability of the tested compounds. The assays were performed by using CacoReady™ ready-to-use kits from ReadyCell according to the manufacturers protocol."}, "[3]": {"test": "Log D by shake flask method (octanol / PBS pH 7.4, HPLC)", "type": "physicochemical", "conditions": "octanol/phosphate-buffered saline; octanol / PBS pH 7.4, shake flask", "method": "In order to classify the inventive compounds according to their lipophilicity, Log D values (distribution coefficient) were determined by means of the well-established shake flask method, measuring the partition of a compound between an octanol and phosphate-buffered saline (PBS, pH 7.4) by HPLC.\nCompounds with a moderate lipophilicity (Log D values from 0 to 3) are usually advantaged for oral absorption, being in balance between solubility and permeability. However, sophisticated formulation of a compound might improve oral bioavailability for highly lipophilic compounds."}}, "data": [{"smiles": "CCNC(=O)C(=O)CC[C@H](NC(=O)c1ccn(C)n1)C(=O)Nc1cccn(CC(=O)N[C@]23C[C@H]4C5CC6CC4[C@H](C2)C(C6)[C@H]5C3)c1=O", "note": "(single isomer, unassigned) [Compound I-80]", "values": [{"measurement": "IC50", "setting": "[1]", "value": "150 to 600", "unit": "nM"}, {"measurement": "Papp", "setting": "[2]", "value": "< 1", "unit": "×10⁻⁶ cm/s"}, {"measurement": "logD", "setting": "[3]", "value": "1 to 3"}]}, {"smiles": "CCNC(=O)C(=O)CC[C@H](NC(=O)c1ncc(OC)o1)C(=O)Nc1cccn(CCC(=O)NC2C3CC4CC(C3)CC2C4)c1=O", "note": "(stereo partly drawn) [Compound I-87, (S)-N1-(1-(3-(2-adamantylamino)-3-oxopropyl)-2-oxo-1,2-dihydropyridin-3-yl)-N6-ethyl-2-(5-methoxyoxazole-2-carboxamido)-5-oxohexanediamide]", "values": [{"measurement": "IC50", "setting": "[1]", "value": "600 to 3500", "unit": "nM"}, {"measurement": "Papp", "setting": "[2]", "value": "1 to 10", "unit": "×10⁻⁶ cm/s"}, {"measurement": "logD", "setting": "[3]", "value": "1 to 3"}]}, {"smiles": "CCC(CC)CNC(=O)Cn1cccc(NC(=O)[C@H](CCC(=O)C(=O)NC)NC(=O)c2cncn2C)c1=O", "note": "[Ref. 1, reference compound]", "values": [{"measurement": "fold more potent compared to Ref. 4", "setting": "[1]; compared to Ref. 4, table 1", "value": "about 15 fold"}]}, {"smiles": "CCC(CC)CNC(=O)Cn1cccc(NC(=O)[C@H](CC/C=C/C(=O)OC)NC(=O)c2cncn2C)c1=O", "note": "[Ref. 2, reference compound]", "values": [{"measurement": "fold more potent compared to Ref. 3", "setting": "[1]; DCC-assay, compared to Ref. 3 (A8)", "value": 80, "unit": "fold"}]}]}
